# Reference: patent US8158106B2, “Particle immobilized coatings and uses thereof” (Surmodics, Inc., priority 2001, dated 2012)
# How the values were obtained:
# [1] = Printed slurries of photoreactive compound and microparticles, presence after washes; format: physicochemical; conditions: slurry of 2.5 mg/ml compound and 20 mg/ml 9.9 μm silica microspheres printed, then irradiated
# Protocol: Slurries were prepared, each containing different polymers and microparticles. These slurries were then disposed on a substrate and treated to form matrices in which microparticles were immobilized. Different polymeric materials were used to immobilize microparticles on a substrate. Four different photoreactive polymers were used to immobilize 9.9 μm diameter silica microparticles on substrates: […] BBDQ (as described in Example 4) a non-polymeric photoreactive material was also used in this Example. […] Each mixture was printed with 25 gauge disposable needles (PrecisionGlide Needles, Becton Dickinson and Co., Franklin Lakes, N.J.) and an x-y programmable stage (CAMM-3, Roland Digital Group, Irvine, Calif.) onto glass microscope slides which had been functionalized with silanes, as detailed in Example 1 and onto acrylic slides (Cadillac Plastics, Minneapolis, Minn.). This printing forms a pattern of approximately 300-400 μm diameter spots on the substrates. The coated substrates were irradiated for two minutes with ultraviolet light as detailed in Example 1. The coated substrates were then imaged with a fluorescence microscope (Olympus BX 60, Tokyo, Japan), to ensure that patterning was successful. Following this, the coated substrate was washed to remove any loosely bound microspheres. The coated substrates were washed three times with 1×PBS (pH 7.4) with 0.1% v/v Tween-20, rinsed with deionized water. At this point, each was again imaged with the fluorescence microscope to determine microsphere loss in the various photoreactive polymer matrices. After imaging, the coated substrates were incubated in a solution of T/E wash buffer for 1 hour at 50° C., followed by two rinses with deionized water. The coated substrates were then incubated in a solution of 4×SSC/0.1% SDS for two hours at 50° C. and rinsed in deionized water.
# [2] = Entrapment of microparticles disposed on pre-irradiated photopolymer matrix spots, presence after washes; format: physicochemical; conditions: 9.9 μm silica microparticles disposed on irradiated spots, compound 2.5 mg/ml
# Text: Different polymeric materials were used to immobilize microparticles on a substrate. First, different polymers were disposed and treated on a substrate to form matrices. This was followed by disposing the microparticles on the substrates which were immobilized via the matrices. Four different photoreactive polymers were used to immobilize 9.9 μm diameter silica microparticles on substrates. […] Pat. No. 5,714,360 to Swan et al., issued Feb., 3, 1998, commonly owned by the assignee of the present invention, the disclosure of which is incorporated herein in its entirety), a non-polymeric photoreactive compound, was evaluated. […] Each solution was printed with 25 gauge disposable needles (PrecisionGlide Needles, Becton Dickinson and Co., Franklin Lakes, N.J.) and an x-y programmable stage (CAMM-3, Roland Digital Group, Irvine, Calif.) onto glass microscope slides which had been functionalized with silanes, as in Example 1, and onto acrylic slides (Cadillac Plastics, Minneapolis, Minn.). This printing forms a pattern of approximately 300-400 μm diameter spots on the substrates. The patterned slides were irradiated for two minutes with ultraviolet light as detailed in Example 1. After irradiation, 500 μl of an aqueous solution of 2 mg/ml 9.9 μm diameter silica microparticles (S[…], Bangs Laboratories, Fisher, Ind.) was placed over the patterned area for one minute to allow the microparticles to associate and become entrapped in the polymer matrices. The slides were then rinsed with 0.1% v/v Tween-20 aqueous solution to remove any free microparticles. Following this, the array was washed to remove loosely bound microspheres. The array was washed three times with 1×PBS (pH 7.4) with 0.1% v/v Tween-20, and then rinsed with deionized water. […] After imaging, the arrays were incubated in a solution of 0.1M TRIS and 50 mM ethanolamine (T/E) wash buffer for 1 hour at 50° C., followed by two rinses with deionized water. The microarrays were then incubated in a solution of 4×SSC/0.1% SDS for two hours at 50° C. and rinsed in deionized water. This was the final step at which imaging was done to evaluate the respective polymers.
structure (smiles),measurement,setting,value
"C[N+](C)(CC[N+](C)(C)Cc1ccc(C(=O)c2ccccc2)cc1)Cc1ccc(C(=O)c2ccccc2)cc1.[Br-].[Br-] [BBDQ, ethylene(4-benzoylbenzyldimethylammonium)dibromide]",Presence of microparticles after PBS-Tween wash,[1]; Acrylic substrate,No loss
same,Presence of microparticles after high salt wash (4X SSC),[1]; Acrylic substrate,Complete loss
same,Presence of microparticles before washes,[1]; Acrylic substrate,Present
same,Presence of microparticles after PBS-Tween wash,[1]; Glass substrate,No loss
same,Presence of microparticles after high salt wash (4X SSC),[1]; Glass substrate,Complete loss
same,Presence of microparticles before washes,[1]; Glass substrate,Present
same,Presence of microparticles after PBS-Tween wash,[2]; Acrylic substrate,Some loss
same,Presence of microparticles after high salt wash (4X SSC),[2]; Acrylic substrate,Complete loss
same,Presence of microparticles before washes,[2]; Acrylic substrate,Present
same,Presence of microparticles after PBS-Tween wash,[2]; Glass substrate,Some loss
same,Presence of microparticles after high salt wash (4X SSC),[2]; Glass substrate,Complete loss
same,Presence of microparticles before washes,[2]; Glass substrate,Present
